Where two headings read alike, the source gives them in different places.
Assays:
hNPFF1-R = biological target: T1, hNPFF1-R (Homo sapiens, UniProt Q9GZQ6); test: Radioligand competition binding at NPFF1-R
T1 construct: expressed in transfected cells; host or cells: CHO cells

hNPFF2-R = biological target: T2, hNPFF2-R (Homo sapiens, UniProt Q9Y5X5); test: Radioligand competition binding at NPFF2-R
T2 construct: expressed in transfected cells; host or cells: CHO cells (membranes)

MOR [1] = biological target: T3, MOR (Homo sapiens, UniProt P35372); test: Radioligand competition binding at MOR
DOR [2] = biological target: T4, DOR (Homo sapiens, UniProt P41143); test: Radioligand competition binding at DOR
KOR [3] = biological target: T5, KOR (Homo sapiens, UniProt P41145); test: biochemical; type: binding
MOR [4] = biological target: T3, MOR; test: [35S]GTPγS functional assay (agonist mode) at MOR; type: biochemical
DOR [5] = biological target: T4, DOR; test: [35S]GTPγS functional assay (agonist mode) at DOR; type: biochemical
KOR [6] = biological target: T5, KOR; test: [35S]GTPγS functional assay (agonist mode) at KOR; type: biochemical
C57BL/6J mice [7] = test: Antinociception assay (55 °C warm water tail withdrawal assay); type: in vivo, mouse; settings: 30 nmol i.c.v., 55 °C
C57BL/6J mice [8] = test: Anti-hyperalgesia assay (48 °C warm water tail withdrawal assay, NPFF-induced hyperalgesia); type: in vivo, mouse; settings: 30 nmol i.c.v. two hours before NPFF 30 nmol i.c.v.
C57BL/6J mice [9] = test: Respiration testing (CLAMS); type: in vivo, mouse; settings: 100 nmol i.c.v., 90 min
C57BL/6J mice [10] = test: Locomotor testing (CLAMS); type: in vivo, mouse; settings: 100 nmol i.c.v., 90 min
C57BL/6J mice [11] = test: Acute antinociceptive tolerance assay (55 °C warm water tail withdrawal); type: in vivo, mouse; settings: i.c.v.
C57BL/6J mice [12] = test: Excreta assay (intestinal transit); settings: 90 min
[13] = read-out: Receptor Binding, Ki ± SEM NPFF1-R
[14] = [3H]EYF, transfected CHO cell membranes, read-out: Receptor Binding, Ki ± SEM NPFF2-R
[15] = read-out: Receptor Binding, Ki ± SEM DOR
[16] = GTPγS Mu Agonist Functional Assay EC50 (Figure S2 curve fit)
[17] = [35S]GTPγS DOR EC50 ± SEM, agonist mode, standard DPDPE
[18] = GTPγS Kappa Agonist Functional Assay EC50 (Figure S2 curve fit), Figure S2, axis Log(M), U69,593 run beside each compound
[19] = [35S]GTPγS KOR EC50 ± SEM, agonist mode, standard U-69,593
[20] = GTPγS Delta Agonist Functional Assay EC50 (Figure S2 curve fit), Figure S2, axis Log(M), DPDPE run beside each compound

T3 sequence (P35372 whole entry): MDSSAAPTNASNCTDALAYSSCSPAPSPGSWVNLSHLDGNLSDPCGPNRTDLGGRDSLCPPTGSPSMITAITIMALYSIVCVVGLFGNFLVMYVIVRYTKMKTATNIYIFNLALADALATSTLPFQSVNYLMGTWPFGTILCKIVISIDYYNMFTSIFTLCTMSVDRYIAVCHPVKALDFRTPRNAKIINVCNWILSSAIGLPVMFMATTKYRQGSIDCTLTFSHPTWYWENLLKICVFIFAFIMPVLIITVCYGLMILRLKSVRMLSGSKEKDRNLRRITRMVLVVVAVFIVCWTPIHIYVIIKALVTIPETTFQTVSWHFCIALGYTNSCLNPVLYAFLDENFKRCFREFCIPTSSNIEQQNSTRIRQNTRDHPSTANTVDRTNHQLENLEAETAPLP
T4 sequence (P41143 whole entry): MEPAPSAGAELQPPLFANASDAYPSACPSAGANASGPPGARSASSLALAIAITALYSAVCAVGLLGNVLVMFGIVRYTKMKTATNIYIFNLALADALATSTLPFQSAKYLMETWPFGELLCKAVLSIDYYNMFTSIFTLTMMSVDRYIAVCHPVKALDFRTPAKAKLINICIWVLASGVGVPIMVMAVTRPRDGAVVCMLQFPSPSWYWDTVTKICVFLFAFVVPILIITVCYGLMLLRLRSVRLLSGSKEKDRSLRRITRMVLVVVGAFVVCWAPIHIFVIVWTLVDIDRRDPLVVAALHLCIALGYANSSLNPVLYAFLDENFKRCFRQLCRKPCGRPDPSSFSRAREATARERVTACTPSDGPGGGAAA
T5 sequence (P41145 whole entry): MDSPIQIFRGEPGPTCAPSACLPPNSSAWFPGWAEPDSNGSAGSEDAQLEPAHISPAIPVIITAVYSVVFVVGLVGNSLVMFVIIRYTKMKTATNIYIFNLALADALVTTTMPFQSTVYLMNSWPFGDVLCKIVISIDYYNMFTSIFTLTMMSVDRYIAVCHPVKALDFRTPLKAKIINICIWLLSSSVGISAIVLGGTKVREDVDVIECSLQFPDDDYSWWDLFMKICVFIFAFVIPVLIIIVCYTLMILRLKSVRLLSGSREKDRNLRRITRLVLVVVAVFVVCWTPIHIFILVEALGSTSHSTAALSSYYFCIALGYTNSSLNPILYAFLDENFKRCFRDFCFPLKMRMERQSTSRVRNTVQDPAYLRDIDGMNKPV
T2 sequence (Q9Y5X5 whole entry): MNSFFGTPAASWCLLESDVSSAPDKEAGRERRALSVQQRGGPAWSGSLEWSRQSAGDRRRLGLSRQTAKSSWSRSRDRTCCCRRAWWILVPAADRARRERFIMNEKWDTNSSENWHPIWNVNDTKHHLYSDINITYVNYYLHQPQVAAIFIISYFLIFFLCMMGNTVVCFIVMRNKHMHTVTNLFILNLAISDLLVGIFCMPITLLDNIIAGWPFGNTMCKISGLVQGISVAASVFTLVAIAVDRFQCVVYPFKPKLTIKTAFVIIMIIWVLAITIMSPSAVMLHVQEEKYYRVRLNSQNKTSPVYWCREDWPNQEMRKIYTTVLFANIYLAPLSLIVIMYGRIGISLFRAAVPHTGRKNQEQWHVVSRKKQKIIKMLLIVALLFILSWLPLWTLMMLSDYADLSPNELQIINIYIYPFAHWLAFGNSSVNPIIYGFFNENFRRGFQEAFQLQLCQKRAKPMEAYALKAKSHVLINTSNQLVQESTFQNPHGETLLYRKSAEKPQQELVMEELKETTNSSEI
T1 sequence (Q9GZQ6 whole entry): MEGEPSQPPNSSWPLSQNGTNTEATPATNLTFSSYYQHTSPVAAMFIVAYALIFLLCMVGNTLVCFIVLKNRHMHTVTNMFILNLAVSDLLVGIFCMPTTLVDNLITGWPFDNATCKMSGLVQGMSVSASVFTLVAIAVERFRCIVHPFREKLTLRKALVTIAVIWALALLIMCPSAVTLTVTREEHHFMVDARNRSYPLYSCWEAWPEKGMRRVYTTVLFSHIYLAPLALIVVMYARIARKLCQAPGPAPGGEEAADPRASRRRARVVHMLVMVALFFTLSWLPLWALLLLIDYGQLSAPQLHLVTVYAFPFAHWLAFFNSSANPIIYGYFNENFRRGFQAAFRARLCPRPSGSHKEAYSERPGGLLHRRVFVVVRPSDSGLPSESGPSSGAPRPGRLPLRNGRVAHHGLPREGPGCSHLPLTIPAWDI

## N=C(N)Nc1cccc(C(=C2CCN(Cc3ccccc3)CC2)c2cccc(O)c2)c1 [Compound 13a, 1-(3-((1-Benzylpiperidin-4-ylidene)(3-hydroxyphenyl)methyl)phenyl)guanidine]
hNPFF1-R; [13]
  Ki: 2180 ± 280 nM
hNPFF2-R; [14]
  Ki: 7.08 ± 1.26 µM
MOR [1]
  Ki: 5.06 ± 0.21 nM
DOR [2]; [15]
  Ki: 0.481 ± 0.192 nM
KOR [3]
  Ki: 2.82 ± 0.39 nM
MOR [4]; [16]
  EC50: 28.3 nM
MOR [4]; [35S]GTPγS MOR EC50 ± SEM
  EC50: 28.3 ± 2.5 nM
DOR [5]; [17]
  EC50: 2.41e-08 ± 2.5e-09 M
KOR [6]; [18]
  EC50: 4.18e-08 M
KOR [6]; [19]
  EC50: 4.18e-08 ± 4.9e-09 M
C57BL/6J mice [7]
  antinociceptive activity over time (screening): did not show statistically significant antinociceptive activity
C57BL/6J mice [8]
  prevention of NPFF-induced hyperalgesia (screening): more moderate, yet still statistically significant, effect

## N=C(N)Nc1ccc(C(=C2CCN(Cc3ccccc3)CC2)c2cccc(O)c2)cc1 [Compound 13b, 1-(4-((1-Benzylpiperidin-4-ylidene)(3-hydroxyphenyl)methyl)phenyl)guanidine]
hNPFF1-R; [13]
  Ki: 605 ± 136 nM
hNPFF2-R; [14]
  Ki: 6.02 ± 1.15 µM
MOR [1]
  Ki: 56.2 ± 7.5 nM
DOR [2]; [15]
  Ki: 1.67 ± 0.61 nM
KOR [3]
  Ki: 30.6 ± 1.1 nM
MOR [4]; [35S]GTPγS MOR EC50 ± SEM
  EC50: 1440 ± 226 nM
DOR [5]; [20]
  EC50: 9.61e-09 M
DOR [5]; [17]
  EC50: 9.62e-09 ± 1.27e-09 M
KOR [6]; [18]
  EC50: 2.68e-07 M
KOR [6]; [19]
  EC50: 2.68e-07 ± 3.19e-08 M
C57BL/6J mice [7]
  antinociceptive activity over time (screening): lacked any marked analgesic activity
C57BL/6J mice [8]
  prevention of NPFF-induced hyperalgesia (screening): greater anti-NPFF activity

## N=C(N)Nc1cccc(C(=C2CCN(Cc3ccccc3)CC2)c2ccc(O)cc2)c1 [Compound 14a, 1-(3-((1-Benzylpiperidin-4-ylidene)(4-hydroxyphenyl)methyl)phenyl)guanidine]
hNPFF1-R; [13]
  Ki: 1720 ± 308 nM
hNPFF2-R; [14]
  Ki: > 10 µM
MOR [1]
  Ki: 33.5 ± 4.7 nM
DOR [2]; hydroxyl shifted from 3′- to 4′- position
  reduction of affinity at DOR relative to 13a: 4 fold
DOR [2]; [15]
  Ki: 2.33 ± 0.6 nM
KOR [3]
  Ki: 32.3 ± 3.5 nM
  reduction of affinity at KOR relative to 13a: 11 fold
MOR [4]; [16]
  EC50: 420 nM
MOR [4]; [35S]GTPγS MOR EC50 ± SEM
  EC50: 420 ± 54.5 nM
DOR [5]; [20]
  EC50: 4.55e-07 M
DOR [5]; [17]
  EC50: 4.55e-07 ± 6.17e-08 M
KOR [6]; [19]
  EC50: 4.82e-07 ± 8.16e-08 M
C57BL/6J mice [7]
  antinociceptive activity over time (screening): did not produce statistically significant antinociception
C57BL/6J mice [8]
  prevention of NPFF-induced hyperalgesia (screening): greater anti-NPFF activity

## N=C(N)Nc1ccc(C(=C2CCN(Cc3ccccc3)CC2)c2ccc(O)cc2)cc1 [Compound 14b, 1-(4-((1-Benzylpiperidin-4-ylidene)(4-hydroxyphenyl)methyl)phenyl)guanidine]
hNPFF1-R
  Ki: 1980 ± 288 nM
hNPFF2-R
  Ki: 4.83 ± 1.01 µM
MOR [1]; read-out: Receptor Binding, Ki ± SEM MOR
  Ki: 313 ± 11 nM
DOR [2]
  Ki: 6.46 ± 1.11 nM
KOR [3]
  Ki: 56.6 ± 3.8 nM
MOR [4]
  EC50: 18600 nM
DOR [5]; Figure S2, axis Log(M), DPDPE run beside each compound, read-out: GTPγS Delta Agonist Functional Assay EC50 (Figure S2 curve fit)
  EC50: 2.27e-07 M
DOR [5]; agonist mode, standard DPDPE, read-out: [35S]GTPγS DOR EC50 ± SEM
  EC50: 2.27e-07 ± 1.25e-08 M
KOR [6]; [18]
  EC50: 1.36e-07 M
KOR [6]; [19]
  EC50: 1.36e-07 ± 2.37e-08 M
C57BL/6J mice [7]
  antinociceptive activity over time (screening): displayed antinociception in vivo second only to 22b
C57BL/6J mice [8]
  prevention of NPFF-induced hyperalgesia (screening): more moderate, yet still statistically significant, effect

## N=C(N)Nc1cccc(C(=C2CCN(Cc3ccccc3)CC2)c2ccccc2)c1 [Compound 22a, 1-(3-((1-Benzylpiperidin-4-ylidene)(phenyl)methyl)phenyl)guanidine]
hNPFF1-R; [13]
  Ki: 1400 ± 61 nM
hNPFF2-R; [14]
  Ki: 2.57 ± 0.423 µM
MOR [1]
  Ki: 6.45 ± 1.23 nM
DOR [2]; [15]
  Ki: 3.37 ± 0.59 nM
KOR [3]
  Ki: 91 ± 9.9 nM
MOR [4]; [35S]GTPγS MOR EC50 ± SEM
  EC50: 102 ± 21.3 nM
DOR [5]; [20]
  EC50: 2.56e-07 M
DOR [5]; [17]
  EC50: 2.56e-07 ± 2.49e-08 M
KOR [6]; [19]
  EC50: 2.55e-07 ± 5.77e-08 M
C57BL/6J mice [7]
  antinociceptive activity over time (screening): displayed antinociception in vivo second only to 22b
C57BL/6J mice [8]
  prevention of NPFF-induced hyperalgesia (screening): more moderate, yet still statistically significant, effect

## CC(C)C[C@H](NC(=O)[C@@H](N)Cc1ccccc1)C(=O)N[C@@H](Cc1ccccc1)C(=O)N[C@@H](CCC(N)=O)C(=O)N1CCC[C@H]1C(=O)N[C@@H](CCC(N)=O)C(=O)N[C@@H](CCCN=C(N)N)C(=O)N[C@@H](Cc1ccccc1)C(N)=O [NPFF, neuropeptide FF, reference compound]
MOR [1]
  Ki: > 10000 nM
DOR [2]
  Ki: > 10000 nM
KOR [3]
  Ki: > 10000 nM

## CN1CC[C@]23c4c5ccc(O)c4O[C@H]2[C@@H](O)C=C[C@H]3[C@H]1C5 [morphine, reference compound]
C57BL/6J mice [9]
  effect on respiration rate: significant respiratory depression
C57BL/6J mice [10]
  effect on ambulation (spontaneous locomotor activity): increased ambulation
C57BL/6J mice [11]; 55 °C, baseline dose response
  antinociception ED50 (95% CI), single administration: 2.35 (1.13–5.03) nmol
C57BL/6J mice [11]; given 8 h after a first dose (morphine 3 nmol, 22b 8.7 nmol), 55 °C
  antinociception ED50 (95% CI), second administration: 22.5 (8.48–61.9) nmol
C57BL/6J mice [11]; second administration 8 h after first
  rightward shift of antinociceptive dose response (acute tolerance): 9.6 fold
C57BL/6J mice [12]; 30 nmol i.c.v.
  number of excreted fecal boli: 1.8 ± 0.8 boli
C57BL/6J mice [12]; 100 nmol i.c.v.
  number of excreted fecal boli: 1.5 ± 0.6 boli
